According to US20260347338A1, “PYRIMIDINE/PYRIDINE DERIVATIVES OR SALTS THEREOF AND PHARMACEUTICAL COMPOSITIONS COMPRISING THE SAME” (YUHAN CORPORATION, priority 2023, published 2026):
Counter-ions that a name gives are not always drawn.

Target: T1, human recombinant HPK1 (Homo sapiens, UniProt Q92918)
T1 construct: purchased BPS Bioscience
Experiment: Inhibitory activity against human recombinant HPK1 (TR-FRET)
Type: biochemical
Conditions: ULight-p70S6K peptide, ATP at Km, room temperature, 1 hour, 0.32 to 1000 nM compound
Outline: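 Recombinant human HPK1 with ULight-p70S6K peptide and ATP at Km, 1 h at room temperature in HEPES pH 7.4 buffer with Mg2+, Mn2+, EGTA, DTT; compounds 0.32–1000 nM final. EDTA stop, Eu-anti-phosphopeptide TR-FRET read (665 nm); IC50 from % inhibition versus DMSO, binned A–D at 10, 50, 100 nM.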

T1 sequence (Q92918 whole entry): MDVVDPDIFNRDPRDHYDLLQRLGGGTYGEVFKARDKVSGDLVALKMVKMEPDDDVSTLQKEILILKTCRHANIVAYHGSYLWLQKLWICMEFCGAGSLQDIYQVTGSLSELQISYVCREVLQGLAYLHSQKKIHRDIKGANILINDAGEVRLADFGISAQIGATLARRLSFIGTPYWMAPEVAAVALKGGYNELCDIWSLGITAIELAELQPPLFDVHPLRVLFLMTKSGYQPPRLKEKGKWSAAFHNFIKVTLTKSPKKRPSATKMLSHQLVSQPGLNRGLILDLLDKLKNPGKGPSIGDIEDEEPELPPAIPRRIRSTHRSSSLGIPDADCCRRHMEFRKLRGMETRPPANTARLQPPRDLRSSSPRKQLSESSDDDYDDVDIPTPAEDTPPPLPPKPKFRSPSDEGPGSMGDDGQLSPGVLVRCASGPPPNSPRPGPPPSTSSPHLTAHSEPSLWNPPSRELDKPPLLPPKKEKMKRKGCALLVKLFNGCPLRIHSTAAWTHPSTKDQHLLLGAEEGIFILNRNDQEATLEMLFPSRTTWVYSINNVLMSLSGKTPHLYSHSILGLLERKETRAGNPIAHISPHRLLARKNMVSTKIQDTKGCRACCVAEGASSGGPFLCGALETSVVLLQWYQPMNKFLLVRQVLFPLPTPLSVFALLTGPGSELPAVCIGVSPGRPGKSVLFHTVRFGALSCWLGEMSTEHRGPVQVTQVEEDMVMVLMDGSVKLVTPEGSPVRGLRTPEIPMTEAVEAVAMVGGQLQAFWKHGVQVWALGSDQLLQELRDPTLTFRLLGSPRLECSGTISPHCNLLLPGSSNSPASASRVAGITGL

| SMILES | IC50 |
| --- | --- |
| COc1cccc(F)c1-c1nccc(Nc2cc(N3CCC[C@H](N)C3)c(-c3cnn([C@@H]4CCNC4)c3)cn2)n1 [Example 238, N-(4-((S)-3-aminopiperidin-1-yl)-5-(1-((R)-pyrrolidin-3-yl)-1H-pyrazol-4-yl)pyridin-2-yl)-2-(2-fluoro-6-methoxyphenyl)pyrimidin-4-amine hydrochloride] | ≤ 10 nM |
| COc1cccc(F)c1-c1nccc(Nc2cc(N3CCC[C@H](O)C3)c(-c3ccc(CN4CCCC(O)C4)nc3)cn2)n1 (stereo partly drawn) [Example 49, 1-((6′-((2-(2-fluoro-6-methoxyphenyl)pyrimidin-4-yl)amino)-4′-((S)-3-hydroxypiperidin-1-yl)-[3,3′-bipyridin]-6-yl)methyl)piperidin-3-ol] | > 100 nM |
| CNC(=O)c1cc(F)c(-c2nccc(Nc3cc(N4CCC[C@H](N)C4)c(-c4cnn(C(F)F)c4)cn3)n2)c(OC)c1 [Example 186, (S)-4-(4-((4-(3-aminopiperidin-1-yl)-5-(1-(difluoromethyl)-1H-pyrazol-4-yl)pyridin-2-yl)amino)pyrimidin-2-yl)-3-fluoro-5-methoxy-N-methylbenzamide hydrochloride] | ≤ 10 nM |
| COc1cccc(F)c1-c1nc(Nc2cc(N3CCC[C@H](O)C3)c(C#CC3CCOCC3)cn2)ccc1C(=O)O [Example 139, 2-(2-fluoro-6-methoxyphenyl)-6-((4-((S)-3-hydroxypiperidin-1-yl)-5-((tetrahydro-2H-pyran-4-yl)ethynyl)pyridin-2-yl)amino)nicotinic acid] | ≤ 10 nM |
| COc1cccc(F)c1-c1nccc(Nc2cc(N3CCC[C@H](N)C3)c(-c3cnc4c(c3)OCCN4C)cn2)n1 [Example 256, (S)-N-(4-(3-aminopiperidin-1-yl)-5-(4-methyl-3,4-dihydro-2H-pyrido[3,2-b][1,4]oxazin-7-yl)pyridin-2-yl)-2-(2-fluoro-6-methoxyphenyl)pyrimidin-4-amine hydrochloride] | ≤ 10 nM |
| COc1cc(F)cc(F)c1-c1nccc(Nc2cc(N3CCC[C@H](N)C3)c(C#Cc3cnn(C(F)(F)F)c3)cn2)n1 [Example 159, (S)-N-(4-(3-aminopiperidin-1-yl)-5-((1-(trifluoromethyl)-1H-pyrazol-4-yl)ethynyl)pyridin-2-yl)-2-(2,4-difluoro-6-methoxyphenyl)pyrimidin-4-amine hydrochloride] | ≤ 10 nM |
| COc1cc(CN(C)C)cc(F)c1-c1nccc(Nc2cc(N3CCC[C@H](N)C3)c(C#CC3CCOCC3)cn2)n1 [Example 106, (S)-N-(4-(3-aminopiperidin-1-yl)-5-((tetrahydro-2H-pyran-4-yl)ethynyl)pyridin-2-yl)-2-(4-((dimethylamino)methyl)-2-fluoro-6-methoxyphenyl)pyrimidin-4-amine hydrochloride] | ≤ 10 nM |
| COc1cc(F)cc(F)c1-c1nccc(Nc2cc(N3CCC[C@H](O)C3)c(C#Cc3cnn(CC(F)F)c3)cn2)n1 [Example 219, (S)-1-(2-((2-(2,4-difluoro-6-methoxyphenyl)pyrimidin-4-yl)amino)-5-((1-(2,2-difluoroethyl)-1H-pyrazol-4-yl)ethynyl)pyridin-4-yl)piperidin-3-ol] | ≤ 10 nM |
| COc1cccc(F)c1-c1nccc(Nc2cc(N3CCC[C@@H](N)C3)c(-c3cnn(C4CCOCC4)c3)cn2)n1 [Example 53, (R)-N-(4-(3-aminopiperidin-1-yl)-5-(1-(tetrahydro-2H-pyran-4-yl)-1H-pyrazol-4-yl)pyridin-2-yl)-2-(2-fluoro-6-methoxyphenyl)pyrimidin-4-amine] | ≤ 10 nM |
| COc1cc(F)cc(F)c1-c1nc(Nc2cc(N3CCC[C@H](N)C3)c(-c3cnn(CC(F)(F)F)c3)cn2)ccc1C#N [Example 320, 6-((4-((S)-3-aminopiperidin-1-yl)-5-(1-(2,2,2-trifluoroethyl)-1H-pyrazol-4-yl)pyridin-2-yl)amino)-2-(2,4-difluoro-6-methoxyphenyl)nicotinonitrile hydrochloride] | ≤ 10 nM |
